Experiments:
[1] = system: Pioneer 39K40 hybrid maize; assay: Test B: visual plant response rating, postemergence herbicides with Compound 1 rate series; format: in vivo, Zea mays L. spp. indentata Sturt.; conditions: in vivo
Experimental: (§1) For all of the following biological tests, plant response ratings were based on a 0-100 scale where zero is growth equivalent to that of untreated plants (no plant response) and 100 represents no additional growth occurring after herbicide treatment.
(§2) Herbicide mixtures were dissolved/dispersed in a non-phytotoxic liquid carrier and were sprayed postemergence to Pioneer 39K40 hybrid maize (Zea mays L. spp. indentata Sturt.) in the third collar growth stage (extended leaf height was 50-60 cm). Treated plants were grown under greenhouse conditions for two weeks before visual evaluations of plant responses were recorded.

[2] = system: Pioneer 39K40 hybrid maize; assay: Test A: visual plant response rating, postemergence herbicide treatments alone and with Compound 1; format: in vivo, Zea mays L. spp. indentata Sturt.; conditions: in vivo
Experimental: as §1
as §2, with “Pioneer 39K40 hybrid maize used in this test (and also Tests B and C) is particularly sensitive to herbicides that inhibit the acetohydroxy acid synthase enzyme. Herbicide” for “Herbicide”

Surinam grass = assay: Test K: pasture grass postemergence plant response rating, field conditions; format: in vivo, Brachiaria decumbens Stapf; conditions: Surinam grass, postemergence, field, four weeks, 0-100 scale
Excerpt: as §1
(§3) Herbicide mixtures were formulated, dissolved/dispersed in water containing 0.25% non-ionic surfactant, and sprayed postemergence to the pasture grasses: Surinam grass (Brachiaria decumbens Stapf), palisade grass (Brachiaria brizantha (Hochst. ex A. Rich) Stapf) and Alexandergrass (Brachiaria plantaginea (Link) A. S. Hitchc.) approximately 10-30 cm tall (extended leaf height). This test was conducted under field conditions. Visual evaluations of plant responses were recorded four weeks after the plants were treated.

sugarcane = assay: Test J: sugarcane postemergence plant response rating, field conditions; format: in vivo, Saccharum officinarum L.; conditions: postemergence, field, four weeks, 0-100 scale
Experimental: as §1
Herbicide mixtures were formulated, dissolved/dispersed in water containing 0.25% non-ionic surfactant, and sprayed postemergence to sugarcane (Saccharum officinarum L.) approximately 20-40 cm tall (extended leaf height). This test was conducted under field conditions. Visual evaluations of plant responses were recorded four weeks after the plants were treated.

Alexandergrass = assay: Test K: pasture grass postemergence plant response rating, field conditions; format: in vivo, Brachiaria plantaginea (Link) A. S. Hitchc.; conditions: Alexandergrass, postemergence, field, four weeks, 0-100 scale
Excerpt: as §1, §3

[3] = system: Pioneer 39K40 hybrid maize; assay: Test C: visual plant response rating, postemergence acetohydroxy acid synthase-inhibiting herbicides alone and with Compound 1; format: in vivo, Zea mays L. spp. indentata Sturt.; conditions: greenhouse, two weeks, 0-100 scale
Experimental: as §1
as §2, with “40-60” for “50-60”

[4] = system: sunflower variety Pioneer 63N82 bred for resistance to tribenuron-methyl; assay: Test H: tribenuron-tolerant sunflower postemergence plant response rating; format: in vivo, Helianthus annuus L. var. Pioneer 63N82; conditions: 2-leaf stage, greenhouse, two weeks, 0-100 scale
Excerpt: as §1
Herbicide mixtures were formulated, dissolved/dispersed in water containing 0.25% non-ionic surfactant, and sprayed postemergence at the 2-leaf growth stage to a sunflower variety (Helianthus annuus L. var. Pioneer 63N82) bred for resistance to tribenuron-methyl. Treated plants were grown under greenhouse conditions for two weeks before visual evaluations of plant responses were recorded.

palisade grass = assay: Test K: pasture grass postemergence plant response rating, field conditions; format: in vivo, Brachiaria brizantha (Hochst. ex A. Rich) Stapf; conditions: Palisade grass, postemergence, field, four weeks, 0-100 scale
Excerpt: as §1, §3

lambsquarters = assay: Test I: postemergence plant response rating; format: in vivo, Chenopodium album L.; conditions: lambsquarters, postemergence, greenhouse, two weeks, 0-100 scale
Excerpt: as §1
(§4) Herbicide mixtures were formulated, dissolved/dispersed in water containing 0.25% non-ionic surfactant, and sprayed postemergence to the crop: soybean (Glycine max (L.) Merr.) at the 2-leaf growth stage and to weeds: lambsquarters (Chenopodium album L.) and velvetleaf (Abutilon theophrasti Medik.). Weed species were 5-10 cm tall when treated. Treated plants were grown under greenhouse conditions for two weeks before visual evaluations of plant responses were recorded.

velvetleaf = assay: Test I: postemergence plant response rating; format: in vivo, Abutilon theophrasti Medik.; conditions: velvetleaf, postemergence, greenhouse, two weeks, 0-100 scale
Excerpt: as §1, §4

[5] = herbicide 30 g ai/ha + Compound 1 70 g ai/ha
[6] = herbicide 30 g ai/ha + Compound 1 140 g ai/ha
[7] = herbicide 8 g ai/ha + Compound 1 125 g ai/ha
[8] = herbicide 4 g ai/ha + Compound 1 125 g ai/ha

CCS(=O)(=O)c1cccnc1S(=O)(=O)NC(=O)Nc1nc(OC)cc(OC)n1 [Rimsulfuron, rimsulfuron]
Observed Response, Herbicide alone [1]: 62
Observed Response, Herbicide alone [2]: 92

COC(=O)c1ccccc1S(=O)(=O)NC(=O)Nc1nc(C)cc(C)n1 [Sulfometuron-methyl, sulfometuron-methyl]
Observed Response, Herbicide mixture with Compound 1 (Surinam grass; [5]): 45
Observed Response, Herbicide mixture with Compound 1 (Surinam grass; [6]): 30
Observed Response, Herbicide alone (Surinam grass; herbicide 30 g ai/ha): 50
Observed Response, Herbicide mixture with Compound 1 (sugarcane; [5]): 45
Observed Response, Herbicide mixture with Compound 1 (sugarcane; [6]): 30
Observed Response, Herbicide alone (sugarcane; herbicide 30 g ai/ha): 60
Observed Response, Herbicide mixture with Compound 1 (Alexandergrass; [5]): 45
Observed Response, Herbicide mixture with Compound 1 (Alexandergrass; [6]): 30
Observed Response, Herbicide alone (Alexandergrass; herbicide 30 g ai/ha): 50
Observed Response, Herbicide mixture with Compound 1 [3, 7]: 100
Observed Response, Herbicide alone ([3]; herbicide 8 g ai/ha): 100
Observed Response, Herbicide mixture with Compound 1 [4, 8]: 7
Observed Response, Herbicide alone ([4]; herbicide 4 g ai/ha): 27
Observed Response, Herbicide mixture with Compound 1 [4, 7]: 3
Observed Response, Herbicide alone ([4]; herbicide 8 g ai/ha): 30
Observed Response, Herbicide mixture with Compound 1 ([4]; herbicide 16 g ai/ha + Compound 1 125 g ai/ha): 3
Observed Response, Herbicide alone ([4]; herbicide 16 g ai/ha): 33
Observed Response, Herbicide mixture with Compound 1 ([4]; herbicide 31 g ai/ha + Compound 1 125 g ai/ha): 7
Observed Response, Herbicide alone ([4]; herbicide 31 g ai/ha): 37
Observed Response, Herbicide mixture with Compound 1 ([4]; herbicide 62 g ai/ha + Compound 1 125 g ai/ha): 7
Observed Response, Herbicide alone ([4]; herbicide 62 g ai/ha): 40
Observed Response, Herbicide mixture with Compound 1 (palisade grass; [5]): 40
Observed Response, Herbicide mixture with Compound 1 (palisade grass; [6]): 20
Observed Response, Herbicide alone (palisade grass; herbicide 30 g ai/ha): 45

COC(=O)c1sccc1S(=O)(=O)NC(=O)Nc1nc(C)nc(OC)n1 [Thifensulfuron-methyl, thifensulfuron-methyl]
Observed Response, Herbicide alone [1]: 45
Observed Response, Herbicide mixture with Compound 1 (lambsquarters; [8]): 99
Observed Response, Herbicide alone (lambsquarters; herbicide 4 g ai/ha): 98
Observed Response, Herbicide mixture with Compound 1 (lambsquarters; [7]): 100
Observed Response, Herbicide alone (lambsquarters; herbicide 8 g ai/ha): 100
Observed Response, Herbicide alone [2]: 73
Observed Response, Herbicide mixture with Compound 1 (velvetleaf; [8]): 99
Observed Response, Herbicide alone (velvetleaf; herbicide 4 g ai/ha): 99
Observed Response, Herbicide mixture with Compound 1 (velvetleaf; [7]): 100
Observed Response, Herbicide alone (velvetleaf; herbicide 8 g ai/ha): 100
